Tested on: site IQ
Test: ROS production with NADH and cytochrome b566 reduction states, mitochondria respiring on CI substrates
Assay type: biochemical, rat
Conditions: 2.5 uM, ATP synthesis restricted
Text: The contribution of site IQ to total ROS production under “normal” circumstances (e.g. when electrons enter CI primarily in the forward direction) remains contentious. […] A possible explanation for this difference is the leak of electrons from site IQ as both Q-pool reduction and PMF remained high in the absence of energy production. To test if site IQ is indeed active under such conditions, we used Compound No. 4 to non-invasively probe mitochondrial ROS production in this system. […] It is believed that even under extreme conditions in which forward electron flow through CI dominates, this provides evidence that site IQ can be a relevant source of ROS.
The rate of ROS production from site IF is linked to the reduction state of the NAD(P)H pool in the mitochondrial matrix (Treberg et al., 2011; Quinlan et al, submitted). Therefore, to evaluate the mechanism of action of putative IF ROS inhibitors, the effect of candidate compounds on the relationship between site IF ROS production and NAD(P)H reduction was tested. NAD(P)H reduction was monitored in isolated mitochondria (0.3 mg/mL) on a Varian Cary Eclipse fluorimeter (ex 365/em 450 nm) as described by Treberg et al., 2011 except the reduction state was slowly titrated with increasing rotenone (0.08 to 4 uM) in the presence of saturating malate (5 mM) and the uncoupler FCCP. Glutamate (5 mM) was added to achieve 100% reduction. […]

O=[N+]([O-])c1ccc(Oc2ccc(S(=O)(=O)NC3CCCCC3)cc2)cc1 [Compound 4]
observed ROS production and NADH / b566 reduction states: lowered the observed ROS production without any changes to the NADH or b566 reduction states
